Assays:
Assay in all cases: relative viability (nuclei count vs DMSO), 5 days (fraction); higher = more cells survive
[1] = compound: COc1cc2nccc(Oc3ccc(NC(=O)C4(C(=O)Nc5ccc(F)cc5)CC4)cc3)c2cc1OC [Cabozantinib] + CC(=O)Nc1cccc(-n2c(=O)n(C3CC3)c(=O)c3c(Nc4ccc(I)cc4F)n(C)c(=O)c(C)c32)c1 [Trametinib] (partner 0.02 µM)
Summary of the method: (§1)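 Lung cancer cell lines were pin-tool dosed in 1536-well plates on the day after seeding, with either a lone drug or a fixed anchor-drug dose plus five library-drug doses (not always all listed) in √10 steps. Nuclei were counted on 4× images after 5 days. Relative viability is the ratio of treated-well to vehicle-well nuclei counts, with each value a median of duplicate plates.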

[2] = compound: COc1cc2nccc(Oc3ccc(NC(=O)C4(C(=O)Nc5ccc(F)cc5)CC4)cc3)c2cc1OC [Cabozantinib] + O=C(c1cc(Cc2n[nH]c(=O)c3ccccc23)ccc1F)N1CCN(C(=O)C2CC2)CC1 [Olaparib] (partner 8 µM)
Summary of the method: as §1

[3] = compound: C1=CC(=CC=C1NC(=S)NNC2=C(C=C(C=C2[N+](=O)[O-])C(F)(F)F)[N+](=O)[O-])F [Kobe2602] + Cc1nc(NC(=O)N2CCC[C@H]2C(N)=O)sc1-c1ccnc(C(C)(C)C(F)(F)F)c1 [Alpelisib] (partner 2 µM)
Summary of the method: as §1

[4] = compound: O[C@@H](COc1cccc2ncccc12)CN1CCN([C@@H]2c3ccccc3[C@@H]3[C@H](c4ccccc42)C3(F)F)CC1 [Zosuquidar] + CS(=O)(=O)CCNCc1ccc(-c2ccc3ncnc(Nc4ccc(OCc5cccc(F)c5)c(Cl)c4)c3c2)o1 [Lapatinib] (partner 2 µM)
Summary of the method: as §1

Cell Line	relative viability ([1]; first compound 0.02 µM)	relative viability ([1]; first compound 0.06325 µM)	relative viability ([1]; first compound 0.2 µM)	relative viability ([1]; first compound 0.6325 µM)	relative viability ([1]; first compound 2 µM)	relative viability ([2]; first compound 0.02 µM)	relative viability ([2]; first compound 0.06325 µM)	relative viability ([2]; first compound 0.2 µM)	relative viability ([2]; first compound 0.6325 µM)	relative viability ([2]; first compound 2 µM)	relative viability ([3]; first compound 0.2 µM)	relative viability ([3]; first compound 0.6325 µM)	relative viability ([3]; first compound 2 µM)	relative viability ([3]; first compound 6.325 µM)	relative viability ([3]; first compound 20 µM)	relative viability ([4]; first compound 0.01 µM)	relative viability ([4]; first compound 0.03162 µM)	relative viability ([4]; first compound 0.1 µM)	relative viability ([4]; first compound 0.3162 µM)	relative viability ([4]; first compound 1 µM)
LXF-289	0.735	0.654	0.659	0.719	0.695	1.13	1.22	1.06	0.979	1.07	1.01	1.02	0.976	1.06	0.994	0.876	0.908	0.872	0.913	0.923
NCI-H23		0.358	0.42	0.377	0.389		0.386	0.345	0.304	0.348	0.669	0.863	0.68	0.829	0.811	1.15	1.16	1.38	1.23	1.15
NCI-H322M	0.521	0.546	0.438	0.525	0.545	0.831	0.902	0.695	0.781	0.675	0.808	0.81	0.828	0.827	0.792	0.552	0.63	0.417	0.582	0.567
NCI-H358	0.114	0.138	0.136	0.139	0.126	0.708	0.625	0.565	0.529	0.591	0.799	0.836	0.677	0.884	0.827	0.475	0.415	0.366	0.55	0.492
NCI-H460	0.133	0.196	0.134	0.159	0.174	0.443	0.492	0.445	0.46	0.422	0.513	0.55	0.507	0.499	0.444	0.927	1	0.983	0.977	1.04
NCI-H520	0.699	0.83	0.808	0.73	0.538	0.369	0.341	0.386	0.42	0.228	0.912	1.12	0.848	0.84	0.859	0.878	0.827	0.569	0.855	0.982
NCI-H596	0.94	0.941	0.797	0.779	0.78	0.75	0.768	0.756	0.7	0.793	0.489	0.438	0.46	0.453	0.415	1.11	1.07	1.08	1.13	1.13
NCI-H647	0.541	0.451	0.449	0.424	0.41	0.715	0.656	0.523	0.537	0.51	1.23	1.37	1.11	1.21	1.12	1.04	1.13	1.03	1.13	1.14
NCI-H650	0.923	0.998	1.16	0.984	0.876	0.38	0.373	0.398	0.386	0.35	1.06	1.28	1.12	1.14	1.08	0.845	0.879		1.49	0.881
NCI-H661	0.542	0.653	0.579	0.572	0.605	0.786	0.79	0.779	0.875	0.825	0.565	0.644	0.738	0.661	0.955	0.6	0.423	0.399	0.639	0.559
NCI-H727	0.42	0.409	0.443	0.395	0.386	0.769	0.828	0.632	0.907	0.606	0.625	0.518	0.614	0.571	0.728	0.846	0.795	0.748	1.02	0.94
NCI-H838	0.487	0.533	0.496	0.51	0.498	0.847	0.836	0.774	0.699	0.662	0.909	1.01	0.915	1	0.976	1.04	0.765	0.858	1.18	1.06
NCI-H1355	0.433	0.462	0.441	0.421	0.435	0.748	0.747	0.775	0.771	0.714	0.791	0.938	0.79	0.751	0.845	0.993	1	0.759	1.11	1
NCI-H1395	0.981	1.18	1.09	1.06	0.938	0.439	0.466	0.497	0.46	0.454	1.05	1.29	1.09	1.14	1.03	1.03	0.903	0.957	1.54	1.04
NCI-H1437	0.571	0.498	0.501	0.598	0.55	0.656	0.633	0.655	0.615	0.607	0.938	1.01	0.914	0.956	0.938	0.825	0.669	0.747	0.908	0.792
NCI-H1651	0.915	0.86	0.845	0.774	0.82	0.176	0.196	0.202	0.184	0.192	0.964	0.932	0.792	0.809	0.965	0.866	0.902	0.865	1.02	0.943

— the supplement of paper PMC10307832
